Measured values taken from US6943183B2 (Pfizer Inc, priority 2000, dated 2005).

Molecular target: T1, SF9 affinity purified rat FPT (Rattus norvegicus, UniProt Q02293+Q04631)
T1 construct: made in house; host or cells: Sf9 insect cells
Test: PFT (FPT) inhibitory activity assay, radiolabeled farnesyl pyrophosphate and biotinyl peptide, streptavidin beads
Type: biochemical
Details: HEPES buffer pH 7.4, 30° C., 30 minutes; read-out: FTase IC50
Summary of the method: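 Rat FPT expressed in SF9 cells was incubated 30 minutes at 30° C. with compound (in 10% DMSO), radiolabeled farnesyl pyrophosphate and biotinylated peptide. Buffer: HEPES pH 7.4, ZnCl2 20 μM, MgCl2 and DTT 5 mM each, 0.1% PEG 8000, 5 mM potassium phosphate (also run without phosphate). Product captured on streptavidin beads in magnesium acetate/H3PO4 stop buffer.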

Compound | IC50 [nM]
C[C@@H](O)CNC(=O)c1ccccc1S(=O)(=O)Cc1c(O[C@H](Cn2ccnc2)c2ccccc2)ccc2c1CCCC2=O [Compound 202, N-[(2R)-2-Hydroxypropyl]-2-{[(2-{[(1S)-2-(1H-imidazol-1-yl)-1-phenylethyl]oxy}-5-oxo-5,6,7,8-tetrahydro-1-naphthalenyl)methyl]sulfonyl}benzamide] | 0.2
C[C@@H](O)CNC(=O)c1ccc(S(=O)(=O)Cc2c(O[C@H](Cn3ccnc3)c3ccccc3)ccc3c2CCCC3=O)cc1 [Compound 203, N-[(2R)-2-Hydroxypropyl]-4-{[(2-{[(1S)-2-(1H-imidazol-1-yl)-1-phenylethyl]oxy}-5-oxo-5,6,7,8-tetrahydro-1-naphthalenyl)methyl]sulfonyl}benzamide] | 1.2
C[C@@H](O)CNC(=O)c1cccc(S(=O)(=O)Cc2c(O[C@H](Cn3ccnc3)c3ccccc3)ccc3c2CCCC3=O)c1 [Compound 204, N-[(2R)-2-Hydroxypropyl]-3-{[(2-{[(1S)-2-(1H-imidazol-1-yl)-1-phenylethyl]oxy}-5-oxo-5,6,7,8-tetrahydro-1-naphthalenyl)methyl]sulfonyl}benzamide] | 0.65
C=CCNC(=O)c1cccc(S(=O)(=O)Cc2c(O[C@H](Cn3ccnc3)c3ccccc3)ccc3c2CCCC3=O)c1 [Compound 205, N-Allyl-3-{[(2-{[(1S)-2-(1H-imidazol-1-yl)-1-phenylethyl]oxy}-5-oxo-5,6,7,8-tetrahydro-1-naphthalenyl)methyl]sulfonyl}benzamide] | 0.2
C=CCNC(=O)c1ccc(S(=O)(=O)Cc2c(O[C@H](Cn3ccnc3)c3ccccc3)ccc3c2CCCC3=O)cc1 [Compound 206, N-Allyl-4-{[(2-{[(1S)-2-(1H-imidazol-1-yl)-1-phenylethyl]oxy}-5-oxo-5,6,7,8-tetrahydro-1-naphthalenyl)methyl]sulfonyl}benzamide] | 0.8
C=CCNC(=O)c1ccccc1S(=O)(=O)Cc1c(O[C@H](Cn2ccnc2)c2ccccc2)ccc2c1CCCC2=O [Compound 207, N-Allyl-2-{[(2-{[(1S)-2-(1H-imidazol-1-yl)-1-phenylethyl]oxy}-5-oxo-5,6,7,8-tetrahydro-1-naphthalenyl)methyl]sulfonyl}benzamide] | 0.2
C=CCNC(=O)c1ccccc1SCc1c(O[C@H](Cn2ccnc2)c2ccccc2)ccc2c1CCCC2=O [Compound 208, N-Allyl-2-{[(2-{[(1S)-2-(1H-imidazol-1-yl)-1-phenylethyl]oxy}-5-oxo-5,6,7,8-tetrahydro-1-naphthalenyl)methyl]sulfanyl}benzamide] | 0.2
C=CCNC(=O)c1ccc(SCc2c(O[C@H](Cn3ccnc3)c3ccccc3)ccc3c2CCCC3=O)cc1 [Compound 209, N-Allyl-4-{[(2-{[(1S)-2-(1H-imidazol-1-yl)-1-phenylethyl]oxy}-5-oxo-5,6,7,8-tetrahydro-1-naphthalenyl)methyl]sulfanyl}benzamide] | 0.2
C=CCNC(=O)c1cccc(SCc2c(O[C@H](Cn3ccnc3)c3ccccc3)ccc3c2CCCC3=O)c1 [Compound 210, N-Allyl-3-{[(2-{[(1S)-2-(1H-imidazol-1-yl)-1-phenylethyl]oxy}-5-oxo-5,6,7,8-tetrahydro-1-naphthalenyl)methyl]sulfanyl}benzamide] | 0.2
C#CCNC(=O)c1ccccc1SCc1c(O[C@H](Cn2ccnc2)c2ccccc2)ccc2c1CCCC2=O [Compound 211, 2-{[(2-{[(1S)-2-(1H-Imidazol-1-yl)-1-phenylethyl]oxy}-5-oxo-5,6,7,8-tetrahydro-1-naphthalenyl)methyl]sulfanyl}-N-(2-propynyl)benzamide] | 0.2
C#CCNC(=O)c1ccc(SCc2c(O[C@H](Cn3ccnc3)c3ccccc3)ccc3c2CCCC3=O)cc1 [Compound 212, 4-{[(2-{[(1S)-2-(1H-Imidazol-1-yl)-1-phenylethyl]oxy}-5-oxo-5,6,7,8-tetrahydro-1-naphthalenyl)methyl]sulfanyl}-N-(2-propynyl)benzamide] | 0.2
C#CCNC(=O)c1cccc(SCc2c(O[C@H](Cn3ccnc3)c3ccccc3)ccc3c2CCCC3=O)c1 [Compound 213, 3-{[(2-{[(1S)-2-(1H-Imidazol-1-yl)-1-phenylethyl]oxy}-5-oxo-5,6,7,8-tetrahydro-1-naphthalenyl)methyl]sulfanyl}-N-(2-propynyl)benzamide] | 0.2
C#CCNC(=O)c1ccc(S(=O)(=O)Cc2c(O[C@H](Cn3ccnc3)c3ccccc3)ccc3c2CCCC3=O)cc1 [Compound 214, 4-{[(2-{[(1S)-2-(1H-Imidazol-1-yl)-1-phenylethyl]oxy}-5-oxo-5,6,7,8-tetrahydro-1-naphthalenyl)methyl]sulfonyl}-N-(2-propynyl)benzamide] | 0.37
C#CCNC(=O)c1cccc(S(=O)(=O)Cc2c(O[C@H](Cn3ccnc3)c3ccccc3)ccc3c2CCCC3=O)c1 [Compound 215, 3-{[(2-{[(1S)-2-(1H-Imidazol-1-yl)-1-phenylethyl]oxy}-5-oxo-5,6,7,8-tetrahydro-1-naphthalenyl)methyl]sulfonyl}-N-(2-propynyl)benzamide] | 0.2
C#CCNC(=O)c1ccccc1S(=O)(=O)Cc1c(O[C@H](Cn2ccnc2)c2ccccc2)ccc2c1CCCC2=O [Compound 216, 2-{[(2-{[(1S)-2-(1H-Imidazol-1-yl)-1-phenylethyl]oxy}-5-oxo-5,6,7,8-tetrahydro-1-naphthalenyl)methyl]sulfonyl}-N-(2-propynyl)benzamide] | 0.4
O=C(NC1CCCC1)c1ccc(S(=O)(=O)Cc2c(O[C@H](Cn3ccnc3)c3ccccc3)ccc3c2CCCC3=O)cc1 [Compound 217, N-Cyclopentyl-4-{[(2-{[(1S)-2-(1H-imidazol-1-yl)-1-phenylethyl]oxy}-5-oxo-5,6,7,8-tetrahydro-1-naphthalenyl)methyl]sulfonyl}benzamide] | 0.2
O=C(NC1CCCC1)c1cccc(S(=O)(=O)Cc2c(O[C@H](Cn3ccnc3)c3ccccc3)ccc3c2CCCC3=O)c1 [Compound 218, N-Cyclopentyl-3-{[(2-{[(1S)-2-(1H-imidazol-1-yl)-1-phenylethyl]oxy}-5-oxo-5,6,7,8-tetrahydro-1-naphthalenyl)methyl]sulfonyl}benzamide] | 0.2
O=C(NC1CCCC1)c1ccccc1S(=O)(=O)Cc1c(O[C@H](Cn2ccnc2)c2ccccc2)ccc2c1CCCC2=O [Compound 219, N-Cyclopentyl-2-{[(2-{[(1S)-2-(1H-imidazol-1-yl)-1-phenylethyl]oxy}-5-oxo-5,6,7,8-tetrahydro-1-naphthalenyl)methyl]sulfonyl}benzamide] | 0.47
O=C(NC1CCCC1)c1ccc(SCc2c(O[C@H](Cn3ccnc3)c3ccccc3)ccc3c2CCCC3=O)cc1 [Compound 220, N-Cyclopentyl-4-{[(2-{[(1S)-2-(1H-imidazol-1-yl)-1-phenylethyl]oxy}-5-oxo-5,6,7,8-tetrahydro-1-naphthalenyl)methyl]sulfanyl}benzamide] | 0.2
O=C(NC1CCCC1)c1cccc(SCc2c(O[C@H](Cn3ccnc3)c3ccccc3)ccc3c2CCCC3=O)c1 [Compound 221, N-Cyclopentyl-3-{[(2-{[(1S)-2-(1H-imidazol-1-yl)-1-phenylethyl]oxy}-5-oxo-5,6,7,8-tetrahydro-1-naphthalenyl)methyl]sulfanyl}benzamide] | 0.2
O=C(NC1CCCC1)c1ccccc1SCc1c(O[C@H](Cn2ccnc2)c2ccccc2)ccc2c1CCCC2=O [Compound 222, N-Cyclopentyl-2-{[(2-{[(1S)-2-(1H-imidazol-1-yl)-1-phenylethyl]oxy}-5-oxo-5,6,7,8-tetrahydro-1-naphthalenyl)methyl]sulfanyl}benzamide] | 0.2
O=C(NC1CC1)c1ccc(S(=O)(=O)Cc2c(O[C@H](Cn3ccnc3)c3ccccc3)ccc3c2CCCC3=O)cc1 [Compound 223, N-Cyclopropyl-4-{[(2-{[(1S)-2-(1H-imidazol-1-yl)-1-phenylethyl]oxy}-5-oxo-5,6,7,8-tetrahydro-1-naphthalenyl)methyl]sulfonyl}benzamide] | 0.24
O=C(NC1CC1)c1cccc(S(=O)(=O)Cc2c(O[C@H](Cn3ccnc3)c3ccccc3)ccc3c2CCCC3=O)c1 [Compound 224, N-Cyclopropyl-3-{[(2-{[(1S)-2-(1H-imidazol-1-yl)-1-phenylethyl]oxy}-5-oxo-5,6,7,8-tetrahydro-1-naphthalenyl)methyl]sulfonyl}benzamide] | 0.2
O=C(NC1CC1)c1ccccc1S(=O)(=O)Cc1c(O[C@H](Cn2ccnc2)c2ccccc2)ccc2c1CCCC2=O [Compound 225, N-Cyclopropyl-2-{[(2-{[(1S)-2-(1H-imidazol-1-yl)-1-phenylethyl]oxy}-5-oxo-5,6,7,8-tetrahydro-1-naphthalenyl)methyl]sulfonyl}benzamide] | 0.2
O=C(NC1CC1)c1ccc(SCc2c(O[C@H](Cn3ccnc3)c3ccccc3)ccc3c2CCCC3=O)cc1 [Compound 226, N-Cyclopropyl-4-{[(2-{[(1S)-2-(1H-imidazol-1-yl)-1-phenylethyl]oxy}-5-oxo-5,6,7,8-tetrahydro-1-naphthalenyl)methyl]sulfanyl}benzamide] | 0.2
O=C(NC1CC1)c1cccc(SCc2c(O[C@H](Cn3ccnc3)c3ccccc3)ccc3c2CCCC3=O)c1 [Compound 227, N-Cyclopropyl-3-{[(2-{[(1S)-2-(1H-imidazol-1-yl)-1-phenylethyl]oxy}-5-oxo-5,6,7,8-tetrahydro-1-naphthalenyl)methyl]sulfanyl}benzamide] | 0.2
O=C(NC1CC1)c1ccccc1SCc1c(O[C@H](Cn2ccnc2)c2ccccc2)ccc2c1CCCC2=O [Compound 228, N-Cyclopropyl-2-{[(2-{[(1S)-2-(1H-imidazol-1-yl)-1-phenylethyl]oxy}-5-oxo-5,6,7,8-tetrahydro-1-naphthalenyl)methyl]sulfanyl}benzamide] | 0.2
